Legend:
[1] = target: T1, transthyretin tetramer (Homo sapiens, UniProt P02766); details: two molecules of glabridin per tetramer; cited from earlier work
[2] = target: T1, transthyretin tetramer; experiment: Stabilization of transthyretin tetramer in serum ex vivo (Test Example 1; urea denaturation, electrophoresis and Western blotting); assay type: biochemical; parameters: from tissue; host or cells: human serum (blood of three middle-aged or older persons)
Method: The white circles represent the ratios in the serums added with the glabridin. The black circles represent the ratios in the serums added with the medium-chain fatty acid triglyceride solution containing a hydrophobic licorice extract.
Serums were obtained from blood taken from three middle-aged or older persons. The medium-chain fatty acid triglyceride solution containing a hydrophobic licorice extract and the glabridin that were obtained in Example 2 were added to each serum (added in such a manner that the amount of the glabridin was 0, 10, and 50 μM respectively). The resulting mixtures were incubated at 25° C. for 30 minutes, and then denatured with urea. Using these samples, the transthyretins (the tetramers and the monomers) in the blood were quantitated by electrophoresis and Western blotting. The stabilization effect was investigated using the ratio of the monomers to the tetramers (monomer/tetramer).

CC1(C)C=Cc2c(ccc3c2OC[C@@H](c2ccc(O)cc2O)C3)O1 [glabridin]
effect on transthyretin tetramer and formation of amyloid fibrils [1]: binding to and stabilizing a transthyretin tetramer
ratio of the monomers to the tetramers (monomer/tetramer) ([2]; serum from three middle-aged or older persons, glabridin added at concentrations up to 50 μM, 25° C. 30 minutes, then denatured with urea): did not change
stabilization effect of the transthyretin (decreasing the ratio of the monomers and increasing the tetramers) ([2]; serum, added so that the amount of glabridin was 0, 10, 50 μM): not observed

From patent US20230241149A1, “TRANSTHYRETIN TETRAMER STABILIZING AGENT, AND PREVENTING AGENT OR PROGRESSION SUPPRESSING AGENT FOR TRANSTHYRETIN AMYLOIDOSIS” (KANEKA CORPORATION, priority 2020, published 2023)
